In patent US10570129B2 (Zoetis Services LLC, priority 2015, dated 2020):

What was measured:
Haemonchus contortus L3 = assay: microbe, parasite or virus in culture; type: cell-based; details: Haemonchus contortus, 96 h, read-out: HcL3 Minimal Effective Concentration (MEC)
D. immitis microfilariae = assay: Dirofilaria immitis, microfilariae (DiMF) in vitro motility assay; type: cell-based; details: Dirofilaria immitis, 72 h, read-out: DiMF minimally effective dose (MEC)

**Q.** How did the minimal effective concentration (Haemonchus contortus L3) turn out when N#Cc1ccc(/C=C/CN2CCc3c(c4ccc(C(F)(F)F)cc4n3C(=O)NCc3ccnc(Cl)c3)C2)cc1F [Example 153, (E)-N-((2-chloropyridin-4-yl)methyl)-2-(3-(4-cyano-3-fluorophenyl)allyl)-7-(trifluoromethyl)-1,2,3,4-tetrahydro-5H-pyrido[4,3-b]indole-5-carboxamide] was run?
**A.** Its minimal effective concentration is 1.3 µM.

**Q.** What about the minimal effective concentration (D. immitis microfilariae) of the same compound?
**A.** The minimal effective concentration was 7.6 µM.

**Q.** O=C(NCc1ccnc(Cl)c1)n1c2c(c3c(C(F)(F)F)cccc31)CN(C/C=C/c1ccc(Cl)cc1)CC2 [Example 157, (E)-2-(3-(4-chlorophenyl)allyl)-N-((2-chloropyridin-4-yl)methyl)-9-(trifluoromethyl)-1,2,3,4-tetrahydro-5H-pyrido[4,3-b]indole-5-carboxamide] was tested. Which minimal effective concentration (Haemonchus contortus L3) did it give?
**A.** Its minimal effective concentration is 3.8 µM.

**Q.** And the minimal effective concentration (D. immitis microfilariae)?
**A.** Its minimal effective concentration is 11.9 µM.

**Q.** Which results are given for O=C(NCc1ccnc(Cl)c1)n1c2c(c3ccc(C(F)(F)F)cc31)CN(C/C=C/c1ccc(Cl)c(Cl)c1)CC2 [Example 158, (E)-N-((2-chloropyridin-4-yl)methyl)-2-(3-(3,4-dichlorophenyl)allyl)-7-(trifluoromethyl)-1,2,3,4-tetrahydro-5H-pyrido[4,3-b]indole-5-carboxamide]?
**A.** minimal effective concentration (Haemonchus contortus L3): 2.2 µM; minimal effective concentration (D. immitis microfilariae): 16.8 µM

**Q.** O=C(NCc1ccnc(Cl)c1)n1c2c(c3c(C(F)(F)F)cccc31)CN(C/C=C/c1ccc(Cl)c(Cl)c1)CC2 [Example 159, (E)-N-((2-chloropyridin-4-yl)methyl)-2-(3-(3,4-dichlorophenyl)allyl)-9-(trifluoromethyl)-1,2,3,4-tetrahydro-5H-pyrido[4,3-b]indole-5-carboxamide] was tested. Which minimal effective concentration (Haemonchus contortus L3) did it give?
**A.** Its minimal effective concentration is 18.2 µM.

**Q.** What about the minimal effective concentration (D. immitis microfilariae) of the same compound?
**A.** Its minimal effective concentration is 10 µM.

**Q.** With O=C(NCc1ccnc(Cl)c1)n1c2c(c3ccc(C(F)(F)F)cc31)CN(C/C=C/c1ccc(F)cc1)CC2 [Example 160, (E)-N-((2-chloropyridin-4-yl)methyl)-2-(3-(4-fluorophenyl)allyl)-7-(trifluoromethyl)-1,2,3,4-tetrahydro-5H-pyrido[4,3-b]indole-5-carboxamide] as the compound, how does the minimal effective concentration (Haemonchus contortus L3) read?
**A.** The minimal effective concentration was 1.8 µM.

**Q.** And the minimal effective concentration (D. immitis microfilariae)?
**A.** The minimal effective concentration was 10 µM.

**Q.** Which minimal effective concentration (Haemonchus contortus L3) does the source give for O=C(NCc1ccnc(Cl)c1)n1c2c(c3c(C(F)(F)F)cccc31)CN(C/C=C/c1ccc(F)cc1)CC2 [Example 161, (E)-N-((2-chloropyridin-4-yl)methyl)-2-(3-(4-fluorophenyl)allyl)-9-(trifluoromethyl)-1,2,3,4-tetrahydro-5H-pyrido[4,3-b]indole-5-carboxamide] here?
**A.** Its minimal effective concentration is 2.1 µM.

**Q.** What about the minimal effective concentration (D. immitis microfilariae) of the same compound?
**A.** Its minimal effective concentration is 10 µM.

**Q.** How did the minimal effective concentration (Haemonchus contortus L3) turn out when O=C(NCc1ccnc(Cl)c1)n1c2c(c3c(C(F)(F)F)cccc31)CN(C/C=C/c1ccc(C(F)(F)F)cc1)CC2 [Example 162, (E)-N-((2-chloropyridin-4-yl)methyl)-9-(trifluoromethyl)-2-(3-(4-(trifluoromethyl)-phenyl)allyl)-1,2,3,4-tetrahydro-5H-pyrido[4,3-b]indole-5-carboxamide] was run?
**A.** The minimal effective concentration was over 100 µM.

**Q.** What about the minimal effective concentration (D. immitis microfilariae) of the same compound?
**A.** Its minimal effective concentration is 10 µM.

**Q.** Which results are given for O=C(NCc1ccnc(F)c1)n1c2c(c3ccc(C(F)(F)F)cc31)CN(C/C=C/c1ccc(Cl)c(Cl)c1)CC2 [Example 166, (E)-2-(3-(3,4-dichlorophenyl)allyl)-N-((2-fluoropyridin-4-yl)methyl)-7-(trifluoromethyl)-1,2,3,4-tetrahydro-5H-pyrido[4,3-b]indole-5-carboxamide]?
**A.** minimal effective concentration (Haemonchus contortus L3): 10 µM; minimal effective concentration (D. immitis microfilariae): 5.7 µM

**Q.** O=C(NCc1ccnc(Cl)c1)n1c2c(c3cc(F)ccc31)CN(C/C=C/c1ccc(Cl)c(Cl)c1)CC2 [Example 167, (E)-N-((2-chloropyridin-4-yl)methyl)-2-(3-(3,4-dichlorophenyl)allyl)-8-fluoro-1,2,3,4-tetrahydro-5H-pyrido[4,3-b]indole-5-carboxamide] was tested. Which minimal effective concentration (Haemonchus contortus L3) did it give?
**A.** The minimal effective concentration was 0.3 µM.

**Q.** What about the minimal effective concentration (D. immitis microfilariae) of the same compound?
**A.** The minimal effective concentration was 33 µM.

**Q.** N#Cc1ccc(/C=C/CN2CCc3c(c4cc(F)ccc4n3C(=O)NCc3ccnc(Cl)c3)C2)cc1 [Example 168, (E)-N-((2-chloropyridin-4-yl)methyl)-2-(3-(4-cyanophenyl)allyl)-8-fluoro-1,2,3,4-tetrahydro-5H-pyrido[4,3-b]indole-5-carboxamide] was tested. Which minimal effective concentration (Haemonchus contortus L3) did it give?
**A.** The minimal effective concentration was 0.5 µM.

**Q.** What about the minimal effective concentration (D. immitis microfilariae) of the same compound?
**A.** The minimal effective concentration was 10 µM.

**Q.** Which results are given for O=C(NCc1ccnc(Cl)c1)n1c2c(c3cc(F)ccc31)CN(C/C=C/c1ccc(Cl)cc1)CC2 [Example 169, (E)-2-(3-(4-chlorophenyl)allyl)-N-((2-chloropyridin-4-yl)methyl)-8-fluoro-1,2,3,4-tetrahydro-5H-pyrido[4,3-b]indole-5-carboxamide]?
**A.** minimal effective concentration (Haemonchus contortus L3): 0.1 µM; minimal effective concentration (D. immitis microfilariae): 18.2 µM

**Q.** What does the source list for O=C(NCc1ccc(F)cc1)n1c2c(c3cc(F)ccc31)CN(C/C=C/c1ccc(Cl)cc1)CC2 [Example 170, (E)-2-(3-(4-chlorophenyl)allyl)-8-fluoro-N-(4-fluorobenzyl)-1,2,3,4-tetrahydro-5H-pyrido[4,3-b]indole-5-carboxamide]?
**A.** minimal effective concentration (Haemonchus contortus L3): > 100 µM; minimal effective concentration (D. immitis microfilariae): 1 µM

**Q.** For N#Cc1cc2c3c(n(C(=O)NCc4ccnc(Cl)c4)c2cc1C(F)(F)F)CCN(C/C=C/c1ccc(Cl)cc1)C3 [Example 171, (E)-2-(3-(4-chlorophenyl)allyl)-N-((2-chloropyridin-4-yl)methyl)-8-cyano-7-(trifluoromethyl)-1,2,3,4-tetrahydro-5H-pyrido[4,3-b]indole-5-carboxamide], which minimal effective concentration (Haemonchus contortus L3) is on record?
**A.** The minimal effective concentration was 0.5 µM.

**Q.** And the minimal effective concentration (D. immitis microfilariae)?
**A.** Its minimal effective concentration is 10 µM.

**Q.** Which results are given for N#Cc1cc2c(cc1F)c1c(n2C(=O)NCc2ccnc(Cl)c2)CCN(C/C=C/c2ccc(Cl)c(F)c2)C1 [Example 172, (E)-2-(3-(4-chloro-3-fluorophenyl)allyl)-N-((2-chloropyridin-4-yl)methyl)-7-cyano-8-fluoro-1,2,3,4-tetrahydro-5H-pyrido[4,3-b]indole-5-carboxamide]?
**A.** minimal effective concentration (Haemonchus contortus L3): 10 µM; minimal effective concentration (D. immitis microfilariae): > 100 µM

**Q.** For N#Cc1ccc(/C=C/CN2CCc3c(c4cc(F)c(C#N)cc4n3C(=O)NCc3ccnc(Cl)c3)C2)cc1 [Example 173, (E)-N-((2-chloropyridin-4-yl)methyl)-7-cyano-2-(3-(4-cyanophenyl)allyl)-8-fluoro-1,2,3,4-tetrahydro-5H-pyrido[4,3-b]indole-5-carboxamide], which minimal effective concentration (Haemonchus contortus L3) is on record?
**A.** The minimal effective concentration was 18.2 µM.

**Q.** What about the minimal effective concentration (D. immitis microfilariae) of the same compound?
**A.** The minimal effective concentration was over 100 µM.

**Q.** How did the minimal effective concentration (Haemonchus contortus L3) turn out when N#Cc1cc2c(cc1F)c1c(n2C(=O)NCc2ccnc(F)c2)CCN(C/C=C/c2ccc(Cl)cc2)C1 [Example 174, (E)-2-(3-(4-chlorophenyl)allyl)-7-cyano-8-fluoro-N-((2-fluoropyridin-4-yl)methyl)-1,2,3,4-tetrahydro-5H-pyrido[4,3-b]indole-5-carboxamide] was run?
**A.** The minimal effective concentration was 57.4 µM.

**Q.** What about the minimal effective concentration (D. immitis microfilariae) of the same compound?
**A.** Its minimal effective concentration is over 100 µM.

**Q.** Which minimal effective concentration (Haemonchus contortus L3) does the source give for N#Cc1cc2c(cc1F)c1c(n2C(=O)NCc2ccnc(Cl)c2)CCN(C/C=C/c2ccc(F)cc2)C1 [Example 175, (E)-N-((2-chloropyridin-4-yl)methyl)-7-cyano-8-fluoro-2-(3-(4-fluorophenyl)allyl)-1,2,3,4-tetrahydro-5H-pyrido[4,3-b]indole-5-carboxamide] here?
**A.** Its minimal effective concentration is 1.8 µM.

**Q.** What about the minimal effective concentration (D. immitis microfilariae) of the same compound?
**A.** Its minimal effective concentration is 10 µM.

**Q.** Cc1cc2c3c(n(C(=O)NCc4ccnc(Cl)c4)c2cc1C#N)CCN(C/C=C/c1ccc(Cl)cc1)C3 [Example 176, (E)-2-(3-(4-chlorophenyl)allyl)-N-((2-chloropyridin-4-yl)methyl)-7-cyano-8-methyl-1,2,3,4-tetrahydro-5H-pyrido[4,3-b]indole-5-carboxamide] was tested. Which minimal effective concentration (Haemonchus contortus L3) did it give?
**A.** Its minimal effective concentration is 0.2 µM.

**Q.** What about the minimal effective concentration (D. immitis microfilariae) of the same compound?
**A.** The minimal effective concentration was 3.3 µM.

**Q.** For N#Cc1cc2c3c(n(C(=O)NCc4ccnc(Cl)c4)c2cc1Cl)CCN(C/C=C/c1ccc(Cl)cc1)C3 [Example 177, (E)-7-chloro-2-(3-(4-chlorophenyl)allyl)-N-((2-chloropyridin-4-yl)methyl)-8-cyano-1,2,3,4-tetrahydro-5H-pyrido[4,3-b]indole-5-carboxamide], which minimal effective concentration (Haemonchus contortus L3) is on record?
**A.** The minimal effective concentration was 0.3 µM.

**Q.** And the minimal effective concentration (D. immitis microfilariae)?
**A.** Its minimal effective concentration is 5.7 µM.

**Q.** What does the source list for N#Cc1cc2c3c(n(C(=O)NCc4ccnc(Cl)c4)c2cc1F)CCN(C/C=C/c1ccc(Cl)cc1)C3 [Example 178, (E)-2-(3-(4-chlorophenyl)allyl)-N-((2-chloropyridin-4-yl)methyl)-8-cyano-7-fluoro-1,2,3,4-tetrahydro-5H-pyrido[4,3-b]indole-5-carboxamide]?
**A.** minimal effective concentration (Haemonchus contortus L3): 0.3 µM; minimal effective concentration (D. immitis microfilariae): > 100 µM

**Q.** O=C(NCc1ccnc(Cl)c1)n1c2c(c3cc(Br)ccc31)CN(C/C=C/c1ccc(Cl)c(F)c1)CC2 [Example 179, (E)-8-bromo-2-(3-(4-chloro-3-fluorophenyl)allyl)-N-((2-chloropyridin-4-yl)methyl)-1,2,3,4-tetrahydro-5H-pyrido[4,3-b]indole-5-carboxamide] was tested. Which minimal effective concentration (Haemonchus contortus L3) did it give?
**A.** Its minimal effective concentration is 0.5 µM.

**Q.** And the minimal effective concentration (D. immitis microfilariae)?
**A.** Its minimal effective concentration is 75.8 µM.

**Q.** Which minimal effective concentration (Haemonchus contortus L3) does the source give for N#Cc1ccc(/C=C/CN2CCc3c(c4cc(Br)ccc4n3C(=O)NCc3ccnc(Cl)c3)C2)cc1F [Example 180, (E)-8-bromo-N-((2-chloropyridin-4-yl)methyl)-2-(3-(4-cyano-3-fluorophenyl)allyl)-1,2,3,4-tetrahydro-5H-pyrido[4,3-b]indole-5-carboxamide] here?
**A.** The minimal effective concentration was 0.5 µM.

**Q.** And the minimal effective concentration (D. immitis microfilariae)?
**A.** Its minimal effective concentration is over 100 µM.

**Q.** With O=C(NCc1ccnc(Cl)c1)n1c2c(c3cc(Br)ccc31)CN(C/C=C/c1ccc(F)cc1F)CC2 [Example 181, (E)-8-bromo-N-((2-chloropyridin-4-yl)methyl)-2-(3-(2,4-difluorophenyl)allyl)-1,2,3,4-tetrahydro-5H-pyrido[4,3-b]indole-5-carboxamide] as the compound, how does the minimal effective concentration (Haemonchus contortus L3) read?
**A.** The minimal effective concentration was 0.2 µM.

**Q.** What about the minimal effective concentration (D. immitis microfilariae) of the same compound?
**A.** Its minimal effective concentration is 32.3 µM.

**Q.** Which results are given for O=C(NCc1ccnc(Cl)c1)n1c2c(c3cc(Br)ccc31)CN(C/C=C/c1ccc(F)c(Cl)c1)CC2 [Example 182, (E)-8-bromo-2-(3-(3-chloro-4-fluorophenyl)allyl)-N-((2-chloropyridin-4-yl)methyl)-1,2,3,4-tetrahydro-5H-pyrido[4,3-b]indole-5-carboxamide]?
**A.** minimal effective concentration (Haemonchus contortus L3): 1 µM; minimal effective concentration (D. immitis microfilariae): > 100 µM

**Q.** How did the minimal effective concentration (Haemonchus contortus L3) turn out when O=C(NCc1ccnc(Cl)c1)n1c2c(c3cc(Br)ccc31)CN(C/C=C/c1ccc(F)c(F)c1)CC2 [Example 183, (E)-8-bromo-N-((2-chloropyridin-4-yl)methyl)-2-(3-(3,4-difluorophenyl)allyl)-1,2,3,4-tetrahydro-5H-pyrido[4,3-b]indole-5-carboxamide] was run?
**A.** The minimal effective concentration was 0.5 µM.

**Q.** And the minimal effective concentration (D. immitis microfilariae)?
**A.** Its minimal effective concentration is 18.2 µM.
